The record followed here is patent US5188642A, “Glyphosate-resistant plants” (priority 1990, dated 1993).

In assay [1] the test system is soybean callus. Put plainly: Soybean callus growth on MS medium with glyphosate. The class given is cell-based, Glycine canescens. The method, then:
Sterile hypocotyl pieces of Glycine canescens, a type of soybean, were infected with the A. tumefaciens strain containing the chimeric EPSPS gene as described in Example 2. Nurse culture plates were made which contained a medium of 10% of the normal level of MS salts (GIBCO), B5 vitamins, 3 g/l sucrose, 2 mg/l napthalene acetic acid, 1 mg/l benzyladenine, and 0.5 mM arginine. The pH was adjusted to 5.7 before autoclaving.
The infected soybean hypocotyls were incubated at 26° C. for two days and transferred to a similar medium (except that the MS salts were not diluted) and additionally containing 500 mg/l carbenicillin, 100 mg/l cefotaxime and 100 mg/l kanamycin. Under these conditions, only transformed soybean callus was able to grow.
Control tissue was produced using A. tumefaciens cells containing the helper Ti plasmid pTiT37-SE and a plant transformation vector pMON200. See Fraley et al, Biotechnology Vol. 3, 1985, described herein. The co-integrate pTiT37-SE contained a T-DNA region with a NOS/NPTII/NOS kanamycin resistance gene and a NOS scorable marker gene identical to pMON200, but without the CaMV 35S/EPSPS/NOS gene.
After 14-17 days, soybean callus transformed with either the vector alone (pMON200 plasmid) or with the vector containing a chimeric EPSPS gene was transferred to petri dishes containing MS medium and 0, 0.5 mM or 1.0 mM glyphosate.
Within 18-20 days after transfer to the media containing glyphosate, actively growing callus tissue appeared in all dishes containing no glyphosate.

The test system of assay [2] is petunia plants. Put plainly: Plant response to glyphosate spraying (petunia plants, track sprayer). The class given is in vivo. The conditions noted are these: isopropylamine salt with ionic surfactant. The method, then: Four individual representative transgenic seedlings were selected, grown and tested in the testing procedure described below, along with four individual non-transformed (wild-type) petunia seedlings.
The plants were grown in a growth medium in a growth chamber at 26° C. with 12 hours of light per day. The plants were fertilized weekly with a soluble fertilizer and watered as needed. The plants were sprayed at a uniform and reproducible delivery rate herbicide by use of an automated track sprayer.
The glyphosate solution used was measured as pounds of glyphosate acid equivalents per acre, mixed as the glyphosate isopropylamine salt, with an ionic surfactant.
Four individual wild-type (non-transformed) petunia plants were selected for use as control plants. Four individual transformed plants containing the pMON546 vector were selected by kanamycin resistance as described in Horsch et al 1985.
The control plants and the transformed plants were sprayed with the isopropylamine salt of glyphosate at the application level listed in Table 2 below; the experimental results obtained are also summarized in Table 2.

Assay [3] concerns sunflower tumors and callus. Briefly: Sunflower tumor and callus tolerance to glyphosate. The class given is cell-based. The text has this:
The following procedures are utilized to obtain transformed sunflower tissue and shoots. Tumors are incited on sterile sunflower seedlings. Sunflower seeds are surface sterilized with 40% Chlorox and sterile distilled water rinses. The seeds are germinated on an agar medium containing B5 salts, 0.5% sucrose and 0.8% agar. Seven-day old seedlings are inoculated with overnight cultures of Agrobacterium strains carrying pTiB6S3-SE by scoring the internode or stabbing the internode with a syringe and using another syringe to introduce the bacteria into the wound. Tumors form in 2-3 weeks. The tumors are removed from the seedlings and grown independently on MS medium without hormones. Transformed callus and shoots are also obtained following a different procedure. Seeds are surface sterilized and placed on the germination medium above. Germination is carried out in the light for 10 days. Hypocotyl segments, 2-3 mm are, excised and inoculated with Agrobacterium strains containing engineered constructs. The hypocotyls are co-cultured for 2 days on a medium containing MS salts and vitamins, 5 g/l KN03, 100 mg/l inositol, 40 mg/l adenine sulfate, 500 mg/l casamino acids, 1 mg/l NAA, 1 mg/l BA, 0.1 mg/l GA3, […] and 8 gm/l agar. After co-culture, the hypocotyls are placed on the same medium but containing 300 mg/l kanamycin and 500 mg/l carbenicillin.
A. tumefaciens containing binary vectors pMON546 and helper plasmid pTiB6S3-SE are used to produce tumors and callus and regenerated plants.

The test system of assay [4] is potato stem explant tissue. The conditions noted are these: tissue transformed with pMON542. The method, then: Potato--Shoot tips of virus-free Russet Burbank are subcultured on media containing MS major and minor salts, 0.17 g/l sodium dihygrogen phosphate, 0.4 mg/l thiamine hydrochloride, 0.1 g/l inositol, 3% sucrose, 1.5 g/l Gelrite™ (Kelco, Co ) at pH 5.6. Cultures are grown at 24C in a 16 hour photoperiod. Shoots are used approximately 3-4 weeks after subculturing. Stem internodes are cut into approximately 8 mm lengths and split lengthwise, then the cut surface is smeared with Agrobacterium carrying binary vector pMON542 and helper plasmid pTiT37-SE which had been streaked on an LB agar plate and grown for a few days. Stem sections are placed cut side down on the surface of the medium containing MS salts, MS organics, 3% sucrose, 2.25 mg/l BA, […] NAA, 10 mg/l GA, 1.5 g/l Gelrite at pH 5.6. After 4 days, the stem explants are transferred to the same medium but with carbenicillin at 500 mg/l and kanamycin as the selective agent at 0 or 300 mg/l. Two weeks after inoculation, the explants are moved onto medium of the same composition but without NAA.

`O=C(O)CNCP(=O)(O)O` [glyphosate, N-phosphonomethylglycine]: the callus growth is recorded as “showed definite growth” in assay [1] (callus colonies containing the chimeric EPSPS gene, 0.5 mM glyphosate, 18-20 days); “little growth in the dishes containing control callus” in assay [1] (control callus (pMON200 vector alone), 0.5 mM glyphosate, 18-20 days); “no callus growth from the control tissues” in assay [1] (control tissues (pMON200), 1.0 mM glyphosate); “some growth of the transformed callus” in assay [1] (transformed callus containing the chimeric EPSPS gene, 1.0 mM glyphosate). Moreover, the “Visual Appearance” value in assay [2] (Chimeric EPSPS transformants (pMON546), 0.8 #/acre acid equivalent) is “healthy and viable”; in assay [2] (Control (wild-type) petunia plants, 0.4 #/acre acid equivalent), “killed”. The callus response in assay [3] (callus without the glyphosate resistance gene) is reported as “kill callus without the glyphosate resistance gene”. Also, the tumor response result in assay [3] (control tumors which do not contain the glyphosate resistance gene) was “bleach and kill control tumors”. The callus tolerance in assay [3] (non-tumorous callus transformed with pMON546) is listed as “show tolerance to levels of glyphosate”. The tumor tolerance entry in assay [3] (tumors produced with pMON546) was “exhibit tolerance to glyphosate”. For the same compound, in assay [4], the resistance of tissue entry is “exhibits substantial resistance to glyphosate”.
